Experimental findings from paper PMC8748766, “The catalytic activity of TCPTP is auto-regulated by its intrinsically disordered tail and activated by Integrin alpha-1” (Nature Communications, 2022) are described below.

Format in all cases: biochemical
The target of one assay is T1, TCPTPCAT (Homo sapiens, UniProt P17706).
T1 construct: TCPTP and TCPTPCAT (residue 1–314) against 2 phosphotyrosine peptides derived from EGFR; His6 (N, cleaved yes); made in house; host or cells: E. coli BL21 (DE3) RIL
T1 sequence (P17706 1-314 isoform P17706-2): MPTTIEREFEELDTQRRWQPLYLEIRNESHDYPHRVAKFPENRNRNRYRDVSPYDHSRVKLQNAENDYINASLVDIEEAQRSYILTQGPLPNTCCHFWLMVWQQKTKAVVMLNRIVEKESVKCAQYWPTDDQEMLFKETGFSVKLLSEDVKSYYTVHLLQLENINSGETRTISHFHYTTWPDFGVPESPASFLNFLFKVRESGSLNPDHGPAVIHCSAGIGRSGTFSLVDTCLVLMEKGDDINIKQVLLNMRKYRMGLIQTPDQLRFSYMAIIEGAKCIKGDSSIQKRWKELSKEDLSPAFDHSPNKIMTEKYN
The assay is described as follows: Kinetics of TCPTPCAT with saturating ITGA1 peptide, pEGFR peptide-2 substrate. Particulars: TCPTPCAT saturated with ITGA1 peptide (ITGA1_TR 1 μM), mean ± SE, n = 9. The text has this:
(§1) Polymerase chain reaction (PCR) fragments of TCPTP (residues: 1–387) TCPTPCAT (catalytic domain, residues: 1–288, 1–302 or 1–314), TCPTPTail (C-terminal tail, residues: 289–387 or 303–387) were amplified from full-length human TCPTP (TC45 isoform). TCPTP, TCPTPCAT (residues: 1–288, 1–314), and TCPTPTail (residues: 289–387) fragments were cloned into pMCSG7 including a N-terminal His6-tag using ligation-independent cloning. For all NMR experiments, the PCR fragments of TCPTP, TCPTPCAT (residues: 1–302) and TCPTPTail (residue: 303–387) were sub-cloned into pRP1B as previously described.
(§2) The rate of dephosphorylation of TCPTP and TCPTPCAT (residue 1–314) against 2 phosphotyrosine peptides derived from EGFR was monitored either with or without ITGA1 peptide (ITGA1_FCT & ITGA1_TR) in assay buffer (25 mM Hepes pH 7.4, 50 mM NaCl and 1 mM DTT). Lyophilized powder of all synthetic peptides was dissolved in assay buffer without DTT (phosphopeptides, 5 mM; ITGA1 peptides, 2 mM). For the kinetic analysis, the concentration of the enzyme was fixed at 1 nM while the substrate (phosphopeptides) concentration was varied from 2.5 μM to 160 μM in a total reaction volume of 200 μl. Effect of ITGA1 peptide on TCPTP & TCPTPCAT kinetics were assessed in saturated condition by adding an excess amount of ITGA1 peptide to the reaction mixture (ITGA1_TR = 1 μM; ITGA1_FCT = 25 μM). The reaction was incubated at 30 °C for 30 min and stopped by the addition of 30 μl phosphate reagent (phosphate colorimetric assay kit; Bio Vision) following the manufacturer’s instructions. Data were normalized and fitted using a nonlinear curve, and kinetics parameters (KM and kcat) were calculated from the Michaelis-Menten equation using Graph Pad Prism 9.0. All data points in the enzyme kinetics experiment were measured in triplicate, and the experiments were repeated three times.

The target of assay [1] is T2, TCPTP (Homo sapiens, UniProt P17706).
T2 construct: fragments of TCPTP (residues: 1–387); His6 (N, cleaved yes); made in house; host or cells: E. coli BL21 (DE3) RIL
T2 sequence (P17706 1-387 isoform P17706-2): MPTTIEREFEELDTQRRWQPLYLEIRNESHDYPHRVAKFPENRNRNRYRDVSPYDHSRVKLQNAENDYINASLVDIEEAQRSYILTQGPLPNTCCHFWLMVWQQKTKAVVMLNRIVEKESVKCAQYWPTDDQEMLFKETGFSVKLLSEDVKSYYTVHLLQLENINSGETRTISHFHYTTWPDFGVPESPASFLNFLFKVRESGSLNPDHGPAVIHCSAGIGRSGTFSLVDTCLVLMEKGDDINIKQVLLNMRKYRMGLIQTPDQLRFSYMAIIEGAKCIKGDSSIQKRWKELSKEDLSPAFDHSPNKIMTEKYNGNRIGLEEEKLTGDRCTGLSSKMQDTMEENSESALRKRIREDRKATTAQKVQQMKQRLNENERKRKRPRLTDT
In words: EC50 assay: TCPTP activation by ITGA1 peptides (pEGFR peptide-1 dephosphorylation). Particulars: 1 nM TCPTP, 50 μM pEGFR peptide-1, pH 7.4, 30 °C 30 min, n = 3.
Description: as §1
To determine the EC50, synthesized ITGA1 peptides (ITGA1_FCT, ITGA1_TCT and ITGA1_TR) were mixed with TCPTP, and phosphatase activity was measured using the phospho-EGFR peptides (pEGFR peptide-1) as substrate. Lyophilized powder of all peptides was dissolved in 25 mM Hepes pH 7.4, 50 mM NaCl. For the assay, the TCPTP concentration was fixed at 1 nM and substrate phospho-peptide at 50 μM. […] The absorbance of the reaction mixture was measured at 650 nm, which was converted to the amount of phosphate produced in reaction based on the standard curve generated from the known phosphate concentration. Data obtained from the reaction was fitted using nonlinear regression mode and EC50 values were calculated based on the equation function “Log(agonist) vs. response-variable slope” using Graph Pad Prism 9.0.

The target of assay [2] is T2, TCPTP. The assay is described as follows: Kinetics of TCPTP with saturating ITGA1 peptide, pEGFR peptide-2 substrate. The conditions noted are these: TCPTP saturated with ITGA1 peptide (ITGA1_TR 1 μM; ITGA1_FCT 25 μM), mean ± SE, n = 9.
Description: as §1, §2

Where [3] appears, read: pEGFR peptide-2, pH 7.4, 30 °C 30 min.

In the case of “RPLKKKMEKRPLKKKMEK [ITGA1_TR, ITGA1 tandem repeat (2x ITGA1_TCT): …]”, the figures for the kcat on TCPTPCAT (setting [3]) and at TCPTP [2] (setting [3]) were 35.6 ± 0.6 s⁻¹ and 34.7 ± 2.3 s⁻¹, respectively. Further, the Km (as a rule, the substrate concentration at which the rate is half of its maximum) on TCPTPCAT (pEGFR peptide-2) was 28.3 ± 1.3 µM; on TCPTP [2] (pEGFR peptide-2) it was 40.9 ± 6.8 µM. Moreover, the figures for the kcat/Km at TCPTPCAT (pEGFR peptide-2) and at TCPTP [2] (pEGFR peptide-2) were 1.2 ± 0.1 µM -1s-1 and 0.8 ± 0.1 µM -1s-1, respectively. Besides, on TCPTP [1], the “activation in EC50 assays (rank)” value is recorded as “strongest activation”.
